Reference: US20260152503A1, “SPIROBICYCLIC COMPOUNDS” (ACERAND THERAPEUTICS (HONG KONG) LIMITED, priority 2022, published 2026)

Legend:
KATO III = test: 2D cell proliferation assay, KATO III; type: cell-based; conditions: Homo sapiens, 96 hours, CTG, read-out: Cell Line, IC50 KATO III
Experimental: (§1) Low IC50 values are indicative of the high potency of the FGFR inhibitor compounds in this assay selling. […] Cell proliferation assays are performed in two-dimensional (2D)) anchorage-dependent conditions in 96 well plates (Corning® Black/Clear flat Bottom, Cat #3603) with the following cell lines: • Ba/F3 FGFR2-BICC1 (human […]): Mouse Ba/F3 cell line stably expressed exogenous human FGFR2-BICC1 fusion gene bearing V546F mutation in FGFR2 Ba/F3; • FGFR2-BICC1 (human FGFR2/[…]): Mouse Ba/F3 cell line stably expressed exogenous human FGFR2-BICC1 fusion gene bearing N549K mutation in FGFR2; • Snu-16: human gastric cancer cell with FGFR2 amplification; • KATO III: human gastric cancer cell with FGFR2 amplification; • AN3CA: Human endometrial cancer with FGFR2 mutation (k310R, N549K); • MFM-223: Human breast cancer with FGFR1/2 amplification; • MFE-296: Human endometrial cancer with FGFR2 mutation (N549K); • MFE-280: Human endometrial cancer with FGFR2 mutation ([…]); • NCI-H1581: human non-small cell lung cancer with FGFR1 amplification; • KG-1a: Acute myelogenous leukemia with FGFR1OP2-FGFR1 translocation; • DMS114: human small cell carcinoma of the lung with FGFR1 amplification; • RT112: human bladder cancer with FGFR3 overexpression/FGFR3-TACC3 fusion; • SW780: human bladder cancer with FGFR3 overexpression/FGFR3-BALAP2L1 fusion; • Hep3B: Liver cancer with FGF19 amplification (FGFR4 ligand); • AGS: Human gastric adenocarcinoma with Kras G12D mutation and FGFR wild type; • PC-9: human non-small cell lung cancer (NSCLC) with wild-type FGFR and an EGFR del19 mutation; or • H1975: human non-small cell lung cancer (NSCLC) with wild-type FGFR and EGFR L858R/T790M mutation.
(§2) Cell lines are purchased from the American Type Culture Collection (ATCC) or Sigma. All cell lines are maintained in RPMI-1640 or DMEM supplemented with 10% heat-inactivated fetal bovine serum.
(§3) Cells growing in the log phase are detached with Gibco™ TrypLE™ Express Enzyme and plated in 96 well plate at 3000 to 5000 cells/well in 100 μl of media. After overnight incubation at 37° C., 5% CO2 incubator, cells are treated with compounds (50 uL/well) at the final concentrations spanning from 0.000038 uM to 10 μM (4-fold serial dilution for total of 10 points). Cells are incubated at 37° C., 5% CO2, and 95% humidity incubator for 96 hours. At the end of incubation 2D CTG reagent from Promega was added to each well according to vendors recommendation and mixed for 10 min in dark. The luminescence signals are determined with a Biotek™ plate reader. Data is fitted using a sigmoidal curve analysis program (GraphPad Prism®) with variable hill slope and IC50 is determined.

Ba/F3 FGFR2-N549K = biological target: T1, Ba/F3 FGFR2-N549K (Homo sapiens, UniProt P21802, N549K, cells depend on it); test: 2D cell proliferation assay, Ba/F3 FGFR2-N549K; type: cell-based, mouse; conditions: 96 hours, CTG, read-out: Cell Line, IC50 Ba/F3 FGFR2-N549K
T1 construct: fused on or other part: Q9H694 (Protein bicaudal C homolog 1)
Experimental: as §1, §2, §3

SNU-16 = test: 2D cell proliferation assay, SNU-16; type: cell-based; conditions: Homo sapiens, 96 hours, CTG, read-out: Cell Line, IC50 SNU-16
Experimental: as §1, §2, §3

FGFR2 = biological target: T2, FGFR2 (Homo sapiens, UniProt P21802, K310R/N549K); test: pERK potency assay (In Cell ELISA), AN3CA cells; type: cell-based; conditions: for IC50: pERK, AN3CA (FGFR2/k310R, N549K) cells, 3 hours; for FGFR1 IC50/FGFR2 IC50 / FGFR3 IC50/FGFR2 IC50: selectivity ratio, pERK potency; for FGFR1 IC50/FGFR2 IC50: FGFR2 relative to FGFR1; for FGFR3 IC50/FGFR2 IC50: FGFR2 relative to FGFR3
T2 construct: in FGFR aberrations of AN3CA (FGFR2/k310R, N549K); host or cells: AN3CA
Outline: (§4)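 Cells with FGFR aberrations (DMS114 FGFR1 amplification, RT112 FGFR3-TACC3 fusion, AN3CA FGFR2 K310R/N549K) exposed 3 h at 37 °C to compound, final 0.000038–10 μM (4-fold dilutions). pERK (Thr202/Tyr204) quantified by In-Cell ELISA chemiluminescence; IC50 from 4-parameter sigmoidal fit.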

FGFR1 = biological target: T3, FGFR1 (Homo sapiens, UniProt P11362); test: pERK potency assay (In Cell ELISA), DMS114 cells; type: cell-based; conditions: DMS114 (FGFR1 amplification) cells, 3 hours
T3 construct: DMS114 (FGFR1 amplification); host or cells: DMS114
Outline: as §4

Ba/F3 FGFR2-V564F = biological target: T4, Ba/F3 FGFR2-V564F (Homo sapiens, UniProt P21802, V564F, cells depend on it); test: 2D cell proliferation assay, Ba/F3 FGFR2-V564F; type: cell-based, mouse; conditions: 96 hours, CTG, read-out: Cell Line, IC50 Ba/F3 FGFR2-V564F
T4 construct: fused on or other part: Q9H694 (Protein bicaudal C homolog 1)
Experimental: as §1, §2, §3

FGFR3 = biological target: T5, FGFR3 (Homo sapiens, UniProt P22607); test: pERK potency assay (In Cell ELISA), RT112 cells; type: cell-based; conditions: RT112 (FGFR3 overexpression/FGFR3-TACC3 fusion) cells, 3 hours
T5 construct: RT112 (FGFR3 overexpression/FGFR3-TACC3 fusion); host or cells: RT112; the other entry of the earlier key: TACC3 (Q9Y6A5, Transforming acidic coiled-coil-containing protein 3)
Outline: as §4

AN3CA = test: 2D cell proliferation assay, AN3CA; type: cell-based; conditions: Homo sapiens, AN3-CA, 96 hours, CTG, read-out: Cell Line, IC50 AN3CA
Experimental: as §1, §2, §3

T1 sequence (P21802 whole entry N549K, the tested form may be a part): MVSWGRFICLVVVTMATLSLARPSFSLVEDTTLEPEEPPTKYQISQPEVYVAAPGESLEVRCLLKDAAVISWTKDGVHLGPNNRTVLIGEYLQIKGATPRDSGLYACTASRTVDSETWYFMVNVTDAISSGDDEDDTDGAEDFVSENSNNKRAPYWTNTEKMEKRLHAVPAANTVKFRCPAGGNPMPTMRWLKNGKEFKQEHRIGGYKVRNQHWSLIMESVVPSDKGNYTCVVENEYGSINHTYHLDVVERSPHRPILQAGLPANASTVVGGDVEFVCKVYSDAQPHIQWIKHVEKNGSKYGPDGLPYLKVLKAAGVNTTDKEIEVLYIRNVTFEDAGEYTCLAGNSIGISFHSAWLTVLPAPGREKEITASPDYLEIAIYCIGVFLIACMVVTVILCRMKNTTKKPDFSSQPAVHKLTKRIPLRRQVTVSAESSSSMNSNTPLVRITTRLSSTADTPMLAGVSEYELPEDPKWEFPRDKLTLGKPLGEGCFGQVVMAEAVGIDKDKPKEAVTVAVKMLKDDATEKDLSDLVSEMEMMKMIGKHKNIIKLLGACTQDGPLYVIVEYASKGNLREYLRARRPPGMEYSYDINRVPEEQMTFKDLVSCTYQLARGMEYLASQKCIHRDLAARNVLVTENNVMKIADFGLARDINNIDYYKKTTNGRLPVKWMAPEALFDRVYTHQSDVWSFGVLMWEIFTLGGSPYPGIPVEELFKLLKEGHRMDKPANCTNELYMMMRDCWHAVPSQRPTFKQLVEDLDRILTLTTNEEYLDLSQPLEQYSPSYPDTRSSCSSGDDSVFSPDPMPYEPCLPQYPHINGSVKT
T4 sequence (P21802 whole entry V564F, the tested form may be a part): as the sequence (P21802 whole entry N549K, the tested form may be a part) above, with K549N, V564F counted along it
T3 sequence (P11362 22-822): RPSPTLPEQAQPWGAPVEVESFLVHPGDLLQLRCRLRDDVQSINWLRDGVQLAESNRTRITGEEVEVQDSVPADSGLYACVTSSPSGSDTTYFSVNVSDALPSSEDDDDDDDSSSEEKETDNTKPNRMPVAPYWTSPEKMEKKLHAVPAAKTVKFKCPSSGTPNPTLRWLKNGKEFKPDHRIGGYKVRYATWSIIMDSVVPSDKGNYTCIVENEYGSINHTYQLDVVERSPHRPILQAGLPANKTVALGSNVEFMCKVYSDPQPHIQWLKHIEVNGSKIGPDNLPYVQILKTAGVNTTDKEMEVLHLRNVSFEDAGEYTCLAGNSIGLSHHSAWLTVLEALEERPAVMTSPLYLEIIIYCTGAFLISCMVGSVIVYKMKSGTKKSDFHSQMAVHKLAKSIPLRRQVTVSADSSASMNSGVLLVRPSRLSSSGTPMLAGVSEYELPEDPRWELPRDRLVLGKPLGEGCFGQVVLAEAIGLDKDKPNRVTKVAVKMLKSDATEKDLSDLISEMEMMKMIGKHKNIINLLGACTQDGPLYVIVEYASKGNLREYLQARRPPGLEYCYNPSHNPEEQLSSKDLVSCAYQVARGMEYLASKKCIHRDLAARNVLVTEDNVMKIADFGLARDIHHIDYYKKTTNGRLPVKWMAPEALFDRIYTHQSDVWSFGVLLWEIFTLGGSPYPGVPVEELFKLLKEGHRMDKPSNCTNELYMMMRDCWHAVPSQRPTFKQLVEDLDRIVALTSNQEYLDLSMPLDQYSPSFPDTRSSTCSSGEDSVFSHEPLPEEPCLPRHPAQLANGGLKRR
T2 sequence (P21802 22-821 K310R/N549K): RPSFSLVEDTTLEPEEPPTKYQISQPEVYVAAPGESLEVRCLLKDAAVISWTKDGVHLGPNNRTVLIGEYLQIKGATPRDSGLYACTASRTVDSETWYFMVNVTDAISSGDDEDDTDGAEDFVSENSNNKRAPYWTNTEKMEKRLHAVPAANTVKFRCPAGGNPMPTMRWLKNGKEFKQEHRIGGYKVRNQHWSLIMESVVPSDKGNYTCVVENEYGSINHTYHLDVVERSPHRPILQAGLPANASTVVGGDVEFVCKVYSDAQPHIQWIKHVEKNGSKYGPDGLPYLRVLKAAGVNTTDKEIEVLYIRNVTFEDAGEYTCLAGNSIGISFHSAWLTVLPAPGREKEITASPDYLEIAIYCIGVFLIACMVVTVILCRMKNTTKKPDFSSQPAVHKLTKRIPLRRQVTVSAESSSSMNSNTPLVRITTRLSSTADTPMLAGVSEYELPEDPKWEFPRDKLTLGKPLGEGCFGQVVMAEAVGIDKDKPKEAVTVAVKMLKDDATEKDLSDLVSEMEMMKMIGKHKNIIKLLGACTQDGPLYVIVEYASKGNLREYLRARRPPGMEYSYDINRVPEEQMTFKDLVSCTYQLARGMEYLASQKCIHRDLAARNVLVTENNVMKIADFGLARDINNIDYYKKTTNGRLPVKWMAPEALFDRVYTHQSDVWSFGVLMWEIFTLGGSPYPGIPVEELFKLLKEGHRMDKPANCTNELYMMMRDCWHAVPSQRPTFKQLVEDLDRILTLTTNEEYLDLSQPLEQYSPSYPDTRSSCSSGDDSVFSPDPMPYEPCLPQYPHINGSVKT

Row | Compound | GI50 (Ba/F3 FGFR2-N549K) | IC50 (SNU-16) | IC50 (FGFR2) | IC50 (FGFR1) | GI50 (Ba/F3 FGFR2-V564F) | IC50 (FGFR3) | IC50 (KATO III) | FGFR1 IC50/FGFR2 IC50 (FGFR2) | FGFR3 IC50/FGFR2 IC50 (FGFR2) | IC50 (AN3CA)
1 | C=CC(=O)N1CCC2(CC=C(c3c(-c4cnc(OC5CC5)c(F)c4)c4c(N)ncnc4n3C)CC2)CC1 [Example 23, 1-(9-(4-amino-5-(6-cyclopropoxy-5-fluoropyridin-3-yl)-7-methyl-7H-pyrrolo[2,3-d]pyrimidin-6-yl)-3-azaspiro[5.5]undec-8-en-3-yl)prop-2-en-1-one] | 1 to 10 nM | 1 to 10 nM | 1 to 10 nM | > 100 nM | 10 to 30 nM | > 100 nM | 1 to 10 nM | G (a selectivity ratio greater than 150 but less than or equal to 500) | H (a selectivity ratio greater than 500 but less than or equal to 1000) | 10 to 30 nM
2 | C=CC(=O)N1CCC2(CC=C(c3c(-c4ccc(OC5CCCC5)nc4)c4c(N)ncnc4n3C)CC2)CC1 [Example 24, 1-(9-(4-amino-5-(6-(cyclopentyloxy)pyridin-3-yl)-7-methyl-7H-pyrrolo[2,3-d]pyrimidin-6-yl)-3-azaspiro[5.5]undec-8-en-3-yl)prop-2-en-1-one] | 1 to 10 nM | 10 to 30 nM | 1 to 10 nM | > 100 nM | 30 to 100 nM | > 100 nM | 10 to 30 nM | F (a selectivity ratio greater than 50 but less than or equal to 150) | F (a selectivity ratio greater than 50 but less than or equal to 150) | 10 to 30 nM
3 | C=CC(=O)N1CCC2(CC=C(c3c(-c4ccc(OC5CCC5)nc4)c4c(N)ncnc4n3C)CC2)CC1 [Example 26, 1-(9-(4-amino-5-(6-cyclobutoxypyridin-3-yl)-7-methyl-7H-pyrrolo[2,3-d]pyrimidin-6-yl)-3-azaspiro[5.5]undec-8-en-3-yl)prop-2-en-1-one] | 1 to 10 nM | 1 to 10 nM | 1 to 10 nM | > 100 nM | 1 to 10 nM | > 100 nM | 1 to 10 nM | F (a selectivity ratio greater than 50 but less than or equal to 150) | G (a selectivity ratio greater than 150 but less than or equal to 500) | 10 to 30 nM
4 | C=CC(=O)N1CCC2(CC=C(c3c(-c4cnc(OC)c(F)c4)c4c(N)ncnc4n3C)CC2)CC1 [Example 28, 1-(9-(4-amino-5-(5-fluoro-6-methoxypyridin-3-yl)-7-methyl-7H-pyrrolo[2,3-d]pyrimidin-6-yl)-3-azaspiro[5.5]undec-8-en-3-yl)prop-2-en-1-one] | 1 to 10 nM | 1 to 10 nM | 1 to 10 nM | > 100 nM | 10 to 30 nM | > 100 nM | 1 to 10 nM | F (a selectivity ratio greater than 50 but less than or equal to 150) | G (a selectivity ratio greater than 150 but less than or equal to 500) | 10 to 30 nM
5 | C=CC(=O)N1CCC2(CC=C(c3c(-c4ncccn4)c4c(N)ncnc4n3C)CC2)CC1 [Example 33, 1-(9-(4-amino-7-methyl-5-(pyrimidin-2-yl)-7H-pyrrolo[2,3-d]pyrimidin-6-yl)-3-azaspiro[5.5]undec-8-en-3-yl)prop-2-en-1-one] | 1 to 10 nM | 1 to 10 nM | 1 to 10 nM | > 100 nM | ≤ 1 nM | > 100 nM | 1 to 10 nM | G (a selectivity ratio greater than 150 but less than or equal to 500) | I (a selectivity ratio greater than 1000 but less than or equal to 2000) | 10 to 30 nM

Continued, in another order:

Row | GI50 (Ba/F3 FGFR2-N549K) | IC50 (SNU-16) | IC50 (FGFR2) | IC50 (FGFR1) | GI50 (Ba/F3 FGFR2-V564F) | IC50 (FGFR3) | Compound | IC50 (KATO III) | FGFR1 IC50/FGFR2 IC50 (FGFR2) | FGFR3 IC50/FGFR2 IC50 (FGFR2) | IC50 (AN3CA)
6 | 1 to 10 nM | 10 to 30 nM | 1 to 10 nM | > 100 nM | 10 to 30 nM | > 100 nM | C=CC(=O)N1CCC2(CC=C(c3c(-c4ccc(OC)nc4)c4c(N)ncnc4n3C)CC2)CC1C (stereo not drawn) [Example 39, 1-(9-(4-amino-5-(6-methoxypyridin-3-yl)-7-methyl-7H-pyrrolo[2,3-d]pyrimidin-6-yl)-2-methyl-3-azaspiro[5.5]undec-8-en-3-yl)prop-2-en-1-one] | 10 to 30 nM | G (a selectivity ratio greater than 150 but less than or equal to 500) | I (a selectivity ratio greater than 1000 but less than or equal to 2000) | 10 to 30 nM
7 | 1 to 10 nM | 10 to 30 nM | ≤ 1 nM | > 100 nM | 1 to 10 nM | > 100 nM | C=CC(=O)N1CCC2(CC=C(c3c(-c4ncc(C(F)(F)F)cn4)c4c(N)ncnc4n3C)CC2)CC1 [Example 42, 1-(9-(4-amino-7-methyl-5-(5-(trifluoromethyl)pyrimidin-2-yl)-7H-pyrrolo[2,3-d]pyrimidin-6-yl)-3-azaspiro[5.5]undec-8-en-3-yl)prop-2-en-1-one] | 10 to 30 nM | J (a selectivity ratio greater than 2000) | J (a selectivity ratio greater than 2000) | 10 to 30 nM
8 | 1 to 10 nM | 10 to 30 nM | ≤ 1 nM | > 100 nM | 1 to 10 nM | > 100 nM | C=CC(=O)N1CCC2(CC=C(c3c(-c4ncc(C#N)cn4)c4c(N)ncnc4n3C)CC2)CC1 [Example 51, 2-(6-(3-acryloyl-3-azaspiro[5.5]undec-8-en-9-yl)-4-amino-7-methyl-7H-pyrrolo[2,3-d]pyrimidin-5-yl)pyrimidine-5-carbonitrile] | 10 to 30 nM | J (a selectivity ratio greater than 2000) | J (a selectivity ratio greater than 2000) | 30 to 100 nM
9 | 1 to 10 nM | 1 to 10 nM | ≤ 1 nM | > 100 nM | ≤ 1 nM | > 100 nM | C=CC(=O)N1CCC2(CC=C(c3c(-c4ncc(C(F)F)cn4)c4c(N)ncnc4n3C)CC2)CC1 [Example 56, 1-(9-(4-amino-5-(5-(difluoromethyl)pyrimidin-2-yl)-7-methyl-7H-pyrrolo[2,3-d]pyrimidin-6-yl)-3-azaspiro[5.5]undec-8-en-3-yl)prop-2-en-1-one] | 1 to 10 nM | G (a selectivity ratio greater than 150 but less than or equal to 500) | I (a selectivity ratio greater than 1000 but less than or equal to 2000) | ≤ 1 nM
